Here are results for 27 compounds from ChEMBL document CHEMBL1201862, “PubChem BioAssay data set” (2004).

Assay [1] has as its target FAD-linked sulfhydryl oxidase ALR (Homo sapiens, UniProt P55789). The assay is described as follows: inhibitors of human ALR sulfhydryl oxidase, dose response, biochemical, H2O2 detection, luminescence, cherry-pick (AID 493248).
Assay [2] relates to Vero. Kind of assay: cells. In kind it is functional. The settings on record: Chlorocebus sabaeus.
Assay [3] is described as follows: growth suppression of PTEN-null colon cells, dose response, cell-based, HCT116 PTEN knockout (AID 1047).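 Further: HCT116 colon tumor cells with PTEN knocked out; cells exposed to compound for 60 hours before readout; potency for loss of cell viability measured by luminescence.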 The class given is functional.
In assay [4] the target is T1, Ubiquitin-conjugating enzyme E2 N (Homo sapiens, UniProt P61088).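 Further: Dose-response confirmation in a TR-FRET assay detecting UBC13-driven polyubiquitin chain formation, inhibition measured.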
T1 sequence (P61088 whole entry): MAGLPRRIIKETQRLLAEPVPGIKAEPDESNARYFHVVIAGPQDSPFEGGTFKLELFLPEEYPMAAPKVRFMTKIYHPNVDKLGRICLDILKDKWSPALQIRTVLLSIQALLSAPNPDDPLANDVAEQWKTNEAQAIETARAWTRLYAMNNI
In kind it is functional.

The target in assay [5] is T2, Streptokinase A (Streptococcus pyogenes serotype M1, UniProt P10520).
T2 sequence (P10520 whole entry): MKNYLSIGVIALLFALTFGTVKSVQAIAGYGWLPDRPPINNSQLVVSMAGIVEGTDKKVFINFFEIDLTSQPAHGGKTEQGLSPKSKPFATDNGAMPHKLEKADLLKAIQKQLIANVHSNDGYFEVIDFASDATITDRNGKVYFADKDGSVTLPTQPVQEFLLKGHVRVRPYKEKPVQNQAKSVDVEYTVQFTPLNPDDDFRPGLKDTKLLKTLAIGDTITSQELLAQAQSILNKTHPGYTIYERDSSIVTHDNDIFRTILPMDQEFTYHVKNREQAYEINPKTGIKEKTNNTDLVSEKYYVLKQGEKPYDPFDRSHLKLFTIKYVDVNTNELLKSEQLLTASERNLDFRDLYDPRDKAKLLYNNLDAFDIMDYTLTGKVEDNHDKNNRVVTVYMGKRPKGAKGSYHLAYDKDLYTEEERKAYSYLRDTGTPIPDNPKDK
The assay is described as follows: S. pyogenes streptokinase expression inhibitors, potency, dose response, plasminogen activation absorbance, OD405 (AID 1914).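 Further: secreted streptokinase activity via plasminogen activation per viability signal from cell pellet.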 The class given is functional, Streptococcus pyogenes M1 GAS.

Assay [6] deals with Streptococcus. The assay is described as follows: Group A Streptococcus viability loss, dose response, counter-screen for streptokinase expression inhibitor project, luminescence, BacTiterGlo (AID 1915).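 Further: potency for reduction of bacterial viability or growth.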 In kind it is functional, organism-based.
The test system of assay [7] is Streptococcus sp. 'group A'. Kind of assay: growth inhibition of control SK(-) GAS strain, dose response, counter-screen for streptokinase expression inhibitor project, luminescence, kanamycin, BacTiterGlo, confirmation (AID 1900). The class given is functional, organism-based.
Assay [8] in a line: Luminescence Cell-Based Dose Retest to Confirm Inhibitors of Cancer Stem Cells. [Related pubchem assays (depositor defined):AID2717, AID2721]. In kind it is functional. The settings on record: Homo sapiens.
The nature of assay [9]: growth suppression of beta-catenin-knockout colon cells, dose response, cell-based, HCT116, human colon tumor (AID 1045).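 Further: HCT116 colon tumor cells with beta catenin knocked out; cells exposed to compound for 60 hours.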 In kind it is functional.
The nature of assay [10]: NIH-3T3 fibroblast cytotoxicity, dose response, cytotoxicity control, cell-based, fluorescence, Alamar Blue, secondary assay (AID 2327).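 Further: NIH-3T3 mouse fibroblasts cultured with fluconazole at 8 µg/mL.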 In kind it is functional. (The colour change of resazurin is a common sign of viable cells or microbes.)
The nature of assay [11]: C. albicans growth with fluconazole, confirmation, fluorescence, retest (AID 2467). The class given is functional, cell-based.
For assay [12], the target named is T3, Rac GTPase-activating protein 1 (Homo sapiens, UniProt Q9H0H5).
T3 sequence (Q9H0H5 whole entry): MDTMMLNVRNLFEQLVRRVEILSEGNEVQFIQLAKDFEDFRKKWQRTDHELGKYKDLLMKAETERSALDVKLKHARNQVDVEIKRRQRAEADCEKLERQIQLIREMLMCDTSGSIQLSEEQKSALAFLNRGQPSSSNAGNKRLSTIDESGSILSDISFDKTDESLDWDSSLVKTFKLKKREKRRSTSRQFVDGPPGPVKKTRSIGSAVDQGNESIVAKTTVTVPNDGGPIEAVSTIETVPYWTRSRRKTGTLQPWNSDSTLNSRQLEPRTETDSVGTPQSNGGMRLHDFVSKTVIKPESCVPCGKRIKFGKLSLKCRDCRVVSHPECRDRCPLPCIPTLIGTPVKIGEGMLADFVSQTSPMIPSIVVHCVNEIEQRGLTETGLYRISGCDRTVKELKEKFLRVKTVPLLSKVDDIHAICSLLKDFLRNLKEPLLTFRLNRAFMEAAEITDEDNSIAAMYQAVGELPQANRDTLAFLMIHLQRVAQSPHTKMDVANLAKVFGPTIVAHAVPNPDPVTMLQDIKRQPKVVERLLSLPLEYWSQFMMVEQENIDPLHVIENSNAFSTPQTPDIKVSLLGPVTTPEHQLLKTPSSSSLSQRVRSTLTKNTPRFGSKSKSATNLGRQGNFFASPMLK
Kind of assay: MgcRacGAP GTPase-activating activity inhibitors, confirmation, biochemical, ADP Hunter fluorescence, primary and confirmatory (AID 624330). In kind it is functional.

The target in assay [13] is T4, Heat shock factor protein 1 (Mus musculus, UniProt P38532).
T4 sequence (P38532 whole entry): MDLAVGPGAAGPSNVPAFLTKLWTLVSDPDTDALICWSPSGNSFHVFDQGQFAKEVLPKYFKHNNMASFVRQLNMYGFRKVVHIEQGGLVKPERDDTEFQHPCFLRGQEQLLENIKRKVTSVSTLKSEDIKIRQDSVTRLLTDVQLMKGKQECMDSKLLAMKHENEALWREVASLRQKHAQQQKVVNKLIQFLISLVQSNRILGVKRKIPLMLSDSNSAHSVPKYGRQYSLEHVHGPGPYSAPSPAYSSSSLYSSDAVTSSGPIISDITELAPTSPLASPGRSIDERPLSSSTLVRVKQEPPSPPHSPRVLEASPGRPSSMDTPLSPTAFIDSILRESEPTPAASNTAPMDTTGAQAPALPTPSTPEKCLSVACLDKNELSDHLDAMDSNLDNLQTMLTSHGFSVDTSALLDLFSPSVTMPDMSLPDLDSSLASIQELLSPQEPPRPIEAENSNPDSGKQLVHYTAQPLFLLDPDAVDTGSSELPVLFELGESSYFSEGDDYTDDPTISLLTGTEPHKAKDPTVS
Kind of assay: HSF1 potentiators in luciferase reporter cells, confirmation, cell-based, NIH3T3, luminescence, dose retest (AID 435004).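 Further: stress induced by proteasome inhibitor MG132 added 30 min after compound; luciferase reporter driven by HSF1 response element in NIH3T3 cells; actives raise luminescence as potentiators of the MG132 stress response.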 The class given is functional. For orientation: Reporter assays use an easily measured gene product as a stand-in for the process of interest.

Assay [14] has as its target T5, High affinity choline transporter 1 (Homo sapiens, UniProt Q9GZV3).
T5 sequence (Q9GZV3 whole entry): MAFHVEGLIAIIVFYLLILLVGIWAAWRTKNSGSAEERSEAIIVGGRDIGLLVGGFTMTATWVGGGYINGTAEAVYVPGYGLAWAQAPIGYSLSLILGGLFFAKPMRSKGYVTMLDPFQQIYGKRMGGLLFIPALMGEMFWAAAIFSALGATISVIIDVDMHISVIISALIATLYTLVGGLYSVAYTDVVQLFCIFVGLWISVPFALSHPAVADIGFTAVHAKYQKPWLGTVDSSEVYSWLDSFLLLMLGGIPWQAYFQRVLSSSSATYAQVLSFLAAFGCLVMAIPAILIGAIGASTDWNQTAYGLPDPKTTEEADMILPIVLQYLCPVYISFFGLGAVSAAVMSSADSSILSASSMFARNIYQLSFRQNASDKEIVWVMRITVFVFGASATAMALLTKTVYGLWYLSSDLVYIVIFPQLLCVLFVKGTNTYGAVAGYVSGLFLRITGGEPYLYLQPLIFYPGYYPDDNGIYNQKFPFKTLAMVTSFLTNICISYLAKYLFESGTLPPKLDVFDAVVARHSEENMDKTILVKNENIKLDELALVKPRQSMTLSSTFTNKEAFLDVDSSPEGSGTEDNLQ
The assay is described as follows: CHT inhibitors, dose response, cell-based, 5-point CRC, membrane potential dye (AID 504840). In kind it is functional.

Assay [15] is described as follows: inhibitors of intracellular T. cruzi replication, confirmation, NIH3T3 host cells, beta-gal luminescence (AID 2044).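 Further: intracellular parasites grown in NIH/3T3 mouse fibroblasts as host cells; luminescent beta-galactosidase reporter signal from transgenic T. cruzi replicating inside host cells; inhibitors lower the luminescence signal.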 The class given is functional, cell-based.
Assay [16] in a line: cytotoxicity toward NIH3T3 fibroblasts, dose response, counter-screen, cell-based, ATP luminescence, mouse fibroblasts (AID 2010).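 Further: cells exposed to compound for about 90 hours before reading.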 In kind it is functional.
The target of assay [17] is Cytochrome P450 2D6 (Homo sapiens, UniProt P10635).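 Further: CYP2D6 member of a cytochrome P450 panel assay.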

Activity calls are given as the source filed them.

Sequence of FAD-linked sulfhydryl oxidase ALR (P55789 whole entry): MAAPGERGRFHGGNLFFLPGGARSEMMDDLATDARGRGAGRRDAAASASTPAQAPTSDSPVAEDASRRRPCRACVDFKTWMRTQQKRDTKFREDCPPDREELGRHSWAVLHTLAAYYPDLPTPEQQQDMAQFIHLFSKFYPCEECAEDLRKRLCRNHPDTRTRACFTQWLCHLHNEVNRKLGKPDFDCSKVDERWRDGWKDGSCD
Sequence of Cytochrome P450 2D6 (P10635 whole entry): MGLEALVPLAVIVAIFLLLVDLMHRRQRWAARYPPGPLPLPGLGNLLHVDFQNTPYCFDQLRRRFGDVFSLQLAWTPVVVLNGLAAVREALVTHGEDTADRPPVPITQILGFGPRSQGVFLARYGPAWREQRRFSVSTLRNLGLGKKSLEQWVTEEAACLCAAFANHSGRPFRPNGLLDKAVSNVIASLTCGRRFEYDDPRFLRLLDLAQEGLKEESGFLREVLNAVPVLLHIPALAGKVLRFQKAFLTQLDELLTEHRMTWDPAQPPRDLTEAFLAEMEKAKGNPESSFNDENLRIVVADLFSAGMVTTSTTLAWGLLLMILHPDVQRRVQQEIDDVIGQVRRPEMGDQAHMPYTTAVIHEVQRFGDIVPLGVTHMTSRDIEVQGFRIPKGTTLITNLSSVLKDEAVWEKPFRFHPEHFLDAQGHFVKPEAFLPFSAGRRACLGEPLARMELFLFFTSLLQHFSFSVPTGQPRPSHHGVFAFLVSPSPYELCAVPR

By AC50 is commonly meant the concentration giving half of the maximal activity seen. Regarding `Nc1ccc(-c2nc3ccccc3[nH]2)cc1`, the AC50 in [1] was 1.3 µM (active).

The CC50 is the concentration that lowers cell viability or growth by half. In the case of `CC1CCN(c2nc3ccc(C(=O)NCCCN4CCCCC4C)cc3s2)CC1` (configuration not stated), the CC50 in assay [2] is > 25 µM (active).

The term EC50 denotes the midpoint of the concentration-response curve. The term IC50 denotes the point on the concentration scale where inhibition reaches its midpoint. As for `CN(C)CCNC=C(C(=O)Nc1ccc(Cl)cc1Cl)C(=O)Nc1ccc(Cl)cc1Cl`, the CC50 in [2] was > 25 µM (active). For the same compound, the EC50 in assay [3] was 17.2 µM (active); in assay [5], > 150 µM (not active); in assay [6], 6.32 µM (active); in assay [7], 2.71 µM (active); in assay [9] it was 26.4 µM (active). Moreover, the IC50 in assay [4] was > 20 µM (inactive). In addition, the AC50 in assay [8] was 6.84 µM (active).

As to `O=C(NCC1CCCO1)c1cc2n(n1)C(C(F)(F)F)CC(c1ccc(Br)cc1)N2` (configuration not stated), the EC50 in assay [10] was > 160 µM (inactive); in assay [11] it was > 38 µM (not active).

As for `Cc1cccc(N2CCN(C(=O)C3CCN(S(=O)(=O)c4c(C)noc4C)CC3)CC2C)c1` (configuration not stated), the AC50 in assay [1] is 10.6 µM (active).

As for `COc1ccc(CSc2[nH]c(C)nc2[N+](=O)[O-])cc1[N+](=O)[O-]`, the AC50 in assay [1] is 0.02 µM (active).

For the compound `Nc1ccc(N2CCN(c3ccc(F)cc3)CC2)cc1`, in assay [1], the AC50 was 0.821 µM (active). In addition, the EC50 in assay [10] is 40.1 µM (active). For the same compound, in assay [12], the IC50 was 18.2 µM (active).

Turning to `O=C(CSc1nnc(-c2ccc(F)cc2)c2ccccc12)Nc1ccccc1`, the EC50 in assay [13] was 104 µM (active).

With `CCOC(=O)c1sc(NC(=O)CCN2CCC(C)CC2)c(C(=O)OCC)c1C`, in [13], the EC50 is > 260 µM (inactive).

As for `CC(C)CCNCC(=O)NC(c1ccccc1)c1ccccc1`, the EC50 in [10] was > 160 µM (inactive); in assay [11] it was > 38 µM (not active).

For the compound `CCOc1cc(N2CCOCC2)c(OCC)cc1NC(=O)c1nc2nc(C)cc(C)n2n1`, the EC50 in [10] is > 160 µM (inactive); in assay [11] it was > 38 µM (not active).

With `C=C(C)COc1ccc(-c2[nH]nc(C)c2-c2ccccc2)c(O)c1`, the EC50 in [10] was 93.6 µM (active); in assay [6] it was 16.4 µM (active); in [7] it was 9.45 µM (active); in [11] it was 2.67 µM (active).

Turning to `COc1cc(/C=C/C(=O)N2C(=O)c3cccc(N)c3C2=O)cc(OC)c1OC`, the CC50 in [2] is 17.8 µM (active). The EC50 in [13] is 2.98 µM (active).

For the compound `Cc1cccc(N2CCN(C(=O)C3CCCN(S(=O)(=O)c4c[nH]cn4)C3)CC2C)c1` (configuration not stated), the AC50 in assay [1] was 3.55 µM (active).

Turning to `O=C(Nc1nc2ccc(S(=O)(=O)N3CCCCC3)cc2s1)c1ccncc1`, the concentration giving a half-maximal response (EC50) is 130 µM (active) in assay [10] and 1.95 µM (active) in assay [11].

In the case of `O=C(NC1CCCCCCC1)c1ccc(S(=O)(=O)N2CCCC2)cc1`, the IC50 in assay [14] was 14.5 µM (active).

On to `OCc1ccccc1OCCOc1ccc(Cl)c2cccnc12`, for which the IC50 in assay [14] is 11.5 µM (active).

In the case of `CCn1c(=O)c(=O)[nH]c2cc(C(=O)NC(C)c3ccc(S(N)(=O)=O)cc3)ccc21` (configuration not stated), the AC50 in assay [1] was 0.407 µM (active).

As to `Cc1ccc(C(=O)C[n+]2cccc3ccccc32)cc1`, the results for the EC50 in assay [15] and in [16] were 32.4 µM (active) and > 60 µM (not active), respectively. Besides, the half-inhibitory concentration (IC50) in [14] is 13.8 µM (active).

Consider `Nc1ccc(Sc2cnn(-c3ccccc3)c(=O)c2Cl)cc1`, for which the AC50 in [17] is 12.6 µM (inconclusive). For the same compound, in assay [13], the EC50 was > 260 µM (inactive).

Consider `CC(C)c1ccc(NC2CCCN(C(=O)c3cnsn3)C2)cc1` (configuration not stated), for which the AC50 in [1] is 4.8 µM (active).

Turning to `CN(c1ccccc1)c1nc(N)c([N+](=O)[O-])c(N2CCCCCC2)n1`, the half-maximal effective concentration (EC50) in [13] was 27.7 µM (active).

Turning to `O=C(CC(CC(=O)c1ccc(Cl)cc1)c1ccccc1C(=O)O)c1ccc(Cl)cc1`, the concentration for half-maximal inhibition (IC50) in assay [14] was 13.8 µM (active).

With `CCn1cc(C(=O)N2CCCCC2)c(=O)c2cc(S(=O)(=O)N3CCC(C)CC3)ccc21`, in [14], the IC50 was 16.2 µM (active).

For the compound `CCOC(=O)c1ccccc1N/C=C/C(=O)c1cccs1`, the IC50 in assay [14] was 13.2 µM (active).

Regarding `CCOc1cc(/C=N/NC(=O)CN2CCCCC2)ccc1OCc1cccc(Cl)c1`, in assay [14], the IC50 was 14.5 µM (active).

For `O=C(N/N=C/c1ccncc1)c1cccc(N/N=C/c2ccncc2)c1`, the half-maximal activity concentration (AC50) in assay [1] is 6.02 µM (active).
